# Source: patent publication US12448425B2, “Therapeutic peptides” (Board of Regents, The University of Texas System, priority 2019, dated 2025)
# Square brackets hold non-standard residues; d marks the D form. Ends that are not written are not given here. Peptide text beside a SMILES is read from it.
# Assays:
# 4T1 cells = test: 4T1 i.v. lung metastasis model; set-up: species or system mouse; details: throughout these in vivo studies
# Source text: FIGS. 25A-B: Anti-metastatic activity of BIDEN-AP. (FIG. 25A) Representative photographs of lungs from different treatment groups. The normal lung tissue was stained by blue ink. (FIG. 25B) Counts of surface metastatic nodules in the lung by visual inspection. Data are expressed as mean±SD. **p<0.01 (n=10).
# BIDEN-AP was given at the same dose and the same schedule as in FIG. 24A. […] Thus, BIDEN-AP is highly anti-metastatic.
# [1] = system: EphB4 on the surface of A2780cp20 cells; assay type: cell-based, human; details: 1 h
# Method: Cell-based binding assay. A2780cp20 ovarian cancer cells (1×10^6 cells/mL) were incubated with EFNB2-Fc (20 nM) and BIDEN-AP at concentrations ranging from 0 to 100 μM at 25° C. for 1 h. After washings, EFNB2-Fc bound to the cells were probed with PE-labeled anti-Fc antibody and analyzed by flow cytometry. Binding of BIDEN-AP to A2780cp20 cells was determined by its ability to displace EFNB2-Fc's binding to the tumor cells, measured by decreased PE fluorescence signal. Cells were analyzed in a Cellquest fluorocytometer (BD Bioscience, San Jose, CA). The experiments were run in duplicate.
# MDA-HGSC-1 PDX tumor = details: mouse, in vivo
# Source text: PDX model of high grade serous ovarian carcinoma (HGSC). Under Institutional Review Board (IRB protocol PA15-0441) and IACUC approval at University of Texas, MD Anderson Cancer Center, patients with high-serous ovarian carcinoma that were being treated by at the MD Anderson Cancer Center were consented for this study. Subcutaneous HGSC-PDX model was established in 4-6 week old female Balb C athymic nude mice (Harlan Laboratories, Indianapolis, Ind.) by implanting one PDX 3×3×3 mm tumor cube (MDA-HGSOC-1 high-grade serous ovarian cancer; generation 9) at the dorsal portion of each mouse. Tumor size was monitored by caliber, and tumor volume was calculated using the formula V(cm^3)=(length×width^2)/2. Mice were randomly assigned to the PBS vehicle control or BIDEN-AP treatment group, 6 mice per group, once tumor size reached ˜100 mm^3 (21 days after implantation). PBS or BIDEN-AP was injected intraperitoneally at […] ([…]), once every other day for a total of 14 doses. At the end of the study (day 49), all mice were euthanized, and tumors were collected, weighted, and snap-frozen in optimal cutting temperature compound with liquid nitrogen, and cryosectioned into 5-μm sections for IHC staining of CD31 and Ki67 markers. […] Cell nuclei were counterstained with DAPI.
# A2780cp20 cells = test: Internalization of Alexa647-labeled peptides (confocal microscopy); assay type: cell-based, human
# Method: FIGS. 2A-C: BIDEN-AP acts as an EphB4 agonist. (FIG. 2A) BIDEN-AP induced phosphorylation of EphB4 and the associated […] (Crk1). After 16 h serum starvation, A2780cp20 cells were incubated with EFNB2-Fc (20 nM), TNYL-RAW (SEQ ID NO: 12) (50 μM), or BIDEN-AP (50 μM) for 30 min or 2 h. The uncropped blots were available at Supplemental FIG. 11. (FIG. 2B) BIDEN-AP inhibited A2780cp20 cell invasion compared to untreated control (CTL). A modified Boyden transwell chamber coated with human defined matrigel was used. Experiments were performed in triplicate. Data are presented as mean±SD. ***p<0.001. (FIG. 2C) Alexa647-BIDEN-AP was internalized via receptor-mediated endocytosis. A2780cp20 cells were incubated at 37° C. with Alexa647-BIDEN-AP (0.05 μM), Alexa647-TNYL-RAW (SEQ ID NO: 12) (0.05 μM), or Alexa647-BIDEN-AP (0.05 μM) plus unlabeled TNYL-RAW (SEQ ID NO: 12) (5 μM, blocking). Alexa647-BIDEN-AP but not Alexa647-TNYL-RAW (SEQ ID NO: 12) was internalized into the A2780cp20 cells.
# A2780cp20 cells were incubated at 4° C. with Alexa647-BIDEN-AP (0.05 μM).
# Immunofluorescence imaging. A2780cp20 ovarian cancer cells (5×10^5 cells/well) were plated in 4-well chamber slides and treated with Alexa647-labeled BIDEN-AP (50 μM) for 1 h or 2 h. Cells were washed three times with 1×PBS and fixed in freshly prepared fixative containing 3.7% formaldehyde, 0.05% glutaraldehyde, and 0.4% Triton-X-100 in PHEMO buffer (0.068 M PIPES, 0.025 M HEPES, 0.015 M EGTA, 0.003 M MgCl2, and 10% ov/v dimethylsufoxide [DMSO]) for 10 min at room temperature. LysoTracker Green (Cat. L7526; Invitrogen, Carlsbad, CA) was used as a marker of lysosome. The nucleus was stained with Hoechst 33342 (300 nM) at room temperature for 10 min before mounting in Gel Mount mounting medium (Vector Laboratories, Burlingame, CA). Fixed and immunofluorescence-stained cells were imaged using a Zeiss LSM510 Meta laser scanning confocal system (Zeiss, Dublin, CA) configured to a Zeiss Axioplan 2 upright microscope with a CFI Plan Apo Lambda 20× objective lens. Images were obtained from three independent biological replicates.
# [2] = Zhang et al., 2011b; cited from earlier work
# EphB4 = target: T1, EphB4 (Homo sapiens, UniProt P54760); test: SPR binding of peptides to immobilized EphB4; details: EphB4-coated sensor chips, 25° C.
# T1 construct: purchased R&D Systems
# T1 sequence (P54760 16-987): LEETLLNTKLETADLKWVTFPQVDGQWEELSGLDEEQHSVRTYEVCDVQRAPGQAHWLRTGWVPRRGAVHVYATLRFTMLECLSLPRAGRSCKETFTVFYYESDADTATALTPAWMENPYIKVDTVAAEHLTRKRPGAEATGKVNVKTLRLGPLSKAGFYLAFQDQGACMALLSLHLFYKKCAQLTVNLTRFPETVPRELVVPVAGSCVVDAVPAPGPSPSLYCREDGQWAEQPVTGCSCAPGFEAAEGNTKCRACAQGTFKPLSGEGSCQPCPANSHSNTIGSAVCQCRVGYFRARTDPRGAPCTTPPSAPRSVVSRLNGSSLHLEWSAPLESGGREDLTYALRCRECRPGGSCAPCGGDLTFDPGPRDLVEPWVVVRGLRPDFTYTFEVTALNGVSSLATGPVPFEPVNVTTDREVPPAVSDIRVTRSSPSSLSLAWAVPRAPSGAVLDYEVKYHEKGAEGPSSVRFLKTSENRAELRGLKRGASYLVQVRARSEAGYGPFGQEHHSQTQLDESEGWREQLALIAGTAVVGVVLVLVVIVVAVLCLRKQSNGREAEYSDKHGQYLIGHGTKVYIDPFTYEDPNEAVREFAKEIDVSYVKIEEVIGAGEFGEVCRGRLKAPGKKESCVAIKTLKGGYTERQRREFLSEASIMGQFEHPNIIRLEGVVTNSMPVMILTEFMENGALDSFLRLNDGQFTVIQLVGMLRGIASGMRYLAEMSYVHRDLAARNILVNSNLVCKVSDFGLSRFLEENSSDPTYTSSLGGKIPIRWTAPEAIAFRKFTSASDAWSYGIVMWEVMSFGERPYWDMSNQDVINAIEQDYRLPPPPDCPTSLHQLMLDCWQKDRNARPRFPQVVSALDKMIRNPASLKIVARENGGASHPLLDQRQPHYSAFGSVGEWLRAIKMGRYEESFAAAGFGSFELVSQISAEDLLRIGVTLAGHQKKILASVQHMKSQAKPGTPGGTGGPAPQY
# Method: Surface plasmon resonance (SPR) binding and competition assays. A stock solution of EphB4 in PBS (100 μg/mL) was diluted to 25 μg/mL with 10 mM sodium acetate buffer (pH 4.5) and immobilized to CM5 sensor chips using the amine coupling reaction according to manufacturer-provided procedures (BIACore). Briefly, the surfaces of the chips in flow cells (FC)-1 and FC-2 were activated by exposing chips to a mixture of 200 mM N-ethyl-N′-dimethylaminopropyl carbodiimide and 50 mM N-hydroxysuccinimide for 7 min. FC-1 was used as a reference surface and was directly deactivated by injecting 1 M ethanolamine at pH 8.5 for 7 min. FC-2 was injected with 25 μg/mL human or murine EphB4 followed by injection of 1 M ethanolamine to block the remaining activated ester groups on the surface. The chips were allowed to stabilize for at least 2 h in HBSEP running buffer before injection of test analytes.
compound,measurement,setting,value
CC[C@H](C)[C@H](NC(=O)[C@@H]1CCCN1C(=O)CNC(=O)[C@H](CC(N)=O)NC(=O)[C@@H]1CCCN1C(=O)[C@H](CO)NC(=O)[C@H](Cc1ccccc1)NC(=O)[C@H](CC(C)C)NC(=O)[C@@H](Cc1ccc(O)cc1)NC(=O)[C@H](CC(N)=O)NC(=O)[C@@H](N)[C@@H](C)O)C(=O)N[C@@H](C)C(=O)N[C@@H](CCCNC(=N)N)C(=O)N[C@@H](C)C(=O)N[C@@H](Cc1c[nH]c2ccccc12)C(N)=O [BIDEN-AP] (H-TN[dY]LFSPNGPIARAW-NH2; C-terminus assumed),"tolerability (treatment-related death, body weight)",4T1 cells,no cases of treatment-related death or change in body weight
same,IC50,[1],~1 µM
same,body weight change vs control group,MDA-HGSC-1 PDX tumor,did not result in body weight change
"Alexa647-BIDEN-AP: BIDEN-AP coupled with Alexa647-NHS (TN[dY]LFSPNGPIARAW; also: Alexa647 label, site not given here)",cellular internalization at 37° C.,A2780cp20 cells,readily internalized
same,internalization in presence of excess unlabeled TNYL-RAW,"A2780cp20 cells; 37° C., blocking",blocked
TNYLFSPNGPIARAW-NH2 (C-terminus assumed) [TNYL-RAW],area-under-the time curve [AUC],[2],29.1 % ID h/mL
YSA-TNYL-RAW-dimer [B4-003],Kd,EphB4,0.021 µM
CC[C@H](C)[C@H](NC(=O)[C@@H]1CCCN1C(=O)CNC(=O)[C@H](CC(N)=O)NC(=O)[C@@H]1CCCN1C(=O)[C@@H](CO)NC(=O)[C@H](Cc1ccccc1)NC(=O)[C@H](CC(C)C)NC(=O)[C@H](Cc1ccc(O)cc1)NC(=O)[C@H](CC(N)=O)NC(=O)[C@@H](N)[C@@H](C)O)C(=O)N[C@@H](C)C(=O)N[C@@H](CCCNC(=N)N)C(=O)N[C@@H](C)C(=O)N[C@@H](Cc1c[nH]c2ccccc12)C(N)=O [B4-006] (H-TNYLF[dS]PNGPIARAW-NH2),Kd,EphB4,> 1 µM
"Alexa647-TNYL-RAW: TNYL-RAW coupled with Alexa647-NHS (TNYLRAW; also: Alexa647 label, site not given here) [reference compound]",cellular internalization at 37° C.,A2780cp20 cells,excluded
